Measured values reported in publication PMC7914897, “Cytotoxic Potential of a-Azepano- and 3-Amino-3,4-SeCo-Triterpenoids” (International Journal of Molecular Sciences, 2021).
Where two headings read alike, the source gives them in different places.

Legend:
Ovarian Cancer subpanel = test: NCI-60 screen, subpanel; settings: Homo sapiens
SF-295 (CNS cancer) = test: NCI-60 screen (SRB, 48 h); settings: Homo sapiens
CCRF-CEM (Leukemia) = test: NCI-60 screen (SRB, 48 h); settings: Homo sapiens
COLO 205 (Colon cancer) = test: NCI-60 screen (SRB, 48 h); settings: Homo sapiens
HOP-62 (NSC lung cancer) = test: NCI-60 screen (SRB, 48 h); settings: Homo sapiens
T-47D (Breast cancer) = test: NCI-60 screen (SRB, 48 h); settings: Homo sapiens, T47D
A498 (Renal cancer) = test: NCI-60 screen (SRB, 48 h); settings: Homo sapiens
SK-OV-3 (Ovarian cancer) = test: NCI-60 screen (SRB, 48 h); settings: Homo sapiens
CAKI-1 (Renal cancer) = test: NCI-60 screen (SRB, 48 h); settings: Homo sapiens
HT29 (Colon cancer) = test: NCI-60 screen (SRB, 48 h); settings: Homo sapiens
UO-31 (Renal cancer) = test: NCI-60 screen (SRB, 48 h); settings: Homo sapiens
HOP-92 (NSC lung cancer) = test: NCI-60 screen (SRB, 48 h); settings: Homo sapiens
OVCAR-3 (Ovarian cancer) = test: cells; settings: Homo sapiens
[1] = tested on: panel of approximately 60 cancer cell lines; test: NCI-60 screen (SRB, 48 h), full panel
SW-620 (Colon cancer) = test: NCI-60 screen (SRB, 48 h); settings: Homo sapiens
CNS cancer subpanel = test: NCI-60 screen, subpanel; settings: Homo sapiens
Renal Cancer subpanel = test: NCI-60 screen, subpanel; settings: Homo sapiens
Colon Cancer subpanel = test: NCI-60 screen, subpanel; settings: Homo sapiens
SNB-75 (CNS cancer) = test: NCI-60 screen (SRB, 48 h); settings: Homo sapiens
SK-MEL-28 (Melanoma) = test: NCI-60 screen (SRB, 48 h)
OVCAR-5 (Ovarian cancer) = test: NCI-60 screen (SRB, 48 h); settings: Homo sapiens
[2] = tested on: NCI-H226 (NSC lung cancer); test: NCI-60 screen (SRB, 48 h)
[3] = tested on: NCI-H322M (NSC lung cancer); test: NCI-60 screen (SRB, 48 h); settings: Homo sapiens
DU-145 (Prostate cancer) = test: NCI-60 screen (SRB, 48 h); settings: Homo sapiens
MOLT-4 (Leukemia) = test: NCI-60 screen (SRB, 48 h); settings: Homo sapiens
M14 (Melanoma) = test: NCI-60 screen (SRB, 48 h); settings: Homo sapiens
EKVX (NSC lung cancer) = test: NCI-60 screen (SRB, 48 h); settings: Homo sapiens

C[C@H]1[C@H](C)CC[C@]2(CO)CC[C@]3(C)C(=CC[C@@H]4[C@@]5(C)CCCNC(C)(C)[C@@H]5CC[C@]43C)[C@H]12 [Compound 4, azepanouvaol]
IC (TGI) (Ovarian Cancer subpanel; 48 h, read-out: TGI MG_MID): 3.59 µM | GI50 (Ovarian Cancer subpanel; read-out: GI50 MG_MID): 1.91 µM | CC50 (Ovarian Cancer subpanel; read-out: LC50 MG_MID): 11.4 µM | GI50 (SF-295 (CNS cancer); SF-295): 1.64 µM | IC (TGI) (SF-295 (CNS cancer); SF-295, 48 h, read-out: TGI): 3.06 µM | CC50 (SF-295 (CNS cancer); SF-295, read-out: LC50): 5.72 µM | GI50 (CCRF-CEM (Leukemia)): 1.74 µM | IC (TGI) (CCRF-CEM (Leukemia); 48 h, read-out: TGI): 3.93 µM | CC50 (CCRF-CEM (Leukemia); read-out: LC50): 8.88 µM | GI50 (COLO 205 (Colon cancer); COLO 205): 1.74 µM | IC (TGI) (COLO 205 (Colon cancer); COLO 205, 48 h, read-out: TGI): 3.46 µM | CC50 (COLO 205 (Colon cancer); COLO 205, read-out: LC50): 6.86 µM | GI50 (HOP-62 (NSC lung cancer); HOP-62): 1.81 µM | IC (TGI) (HOP-62 (NSC lung cancer); HOP-62, 48 h, read-out: TGI): 3.49 µM | CC50 (HOP-62 (NSC lung cancer); HOP-62, read-out: LC50): 6.52 µM | GI50 (T-47D (Breast cancer)): 1.68 µM | IC (TGI) (T-47D (Breast cancer); 48 h, read-out: TGI): 4.03 µM | CC50 (T-47D (Breast cancer); read-out: LC50): 9.66 µM | GI50 (A498 (Renal cancer); A498): 1.63 µM | IC (TGI) (A498 (Renal cancer); A498, 48 h, read-out: TGI): 3.29 µM | CC50 (A498 (Renal cancer); A498, read-out: LC50): 6.63 µM | GI50 (SK-OV-3 (Ovarian cancer); SK-OV-3): 2.54 µM | IC (TGI) (SK-OV-3 (Ovarian cancer); SK-OV-3, 48 h, read-out: TGI): 3.97 µM | CC50 (SK-OV-3 (Ovarian cancer); SK-OV-3, read-out: LC50): 35.2 µM | GI50 (CAKI-1 (Renal cancer); CAKI-1): 1.62 µM | IC (TGI) (CAKI-1 (Renal cancer); CAKI-1, 48 h, read-out: TGI): 3.23 µM | CC50 (CAKI-1 (Renal cancer); CAKI-1, read-out: LC50): 6.43 µM | GI50 (HT29 (Colon cancer); HT-29): 0.63 µM | IC (TGI) (HT29 (Colon cancer); HT-29, 48 h, read-out: TGI): 1.97 µM | CC50 (HT29 (Colon cancer); HT-29, read-out: LC50): 4.85 µM | GI50 (UO-31 (Renal cancer); UO-31): 1.54 µM | IC (TGI) (UO-31 (Renal cancer); UO-31, 48 h, read-out: TGI): 2.99 µM | CC50 (UO-31 (Renal cancer); UO-31, read-out: LC50): 5.79 µM | GI50 (HOP-92 (NSC lung cancer); HOP-92): 1.52 µM | IC (TGI) (HOP-92 (NSC lung cancer); HOP-92, 48 h, read-out: TGI): 3.19 µM | CC50 (HOP-92 (NSC lung cancer); HOP-92, read-out: LC50): 6.67 µM | GI50 (OVCAR-3 (Ovarian cancer); OVCAR-3): 1.83 µM | IC (TGI) (OVCAR-3 (Ovarian cancer); OVCAR-3, 48 h, read-out: TGI): 3.42 µM | CC50 (OVCAR-3 (Ovarian cancer); OVCAR-3, read-out: LC50): 6.39 µM | Positive Cytostatic Effect (cell lines with percent growth 0 to 50 / total) ([1]; 1 dose 10 µM): 18/59 | Positive Cytotoxic Effect (cell lines with percent growth < 0 / total) ([1]; 1 dose 10 µM): 40/59 | number of cancer cell lines the compound was active against ([1]; 1 dose 10 µM): 57 cell lines | activity at 10 µM ([1]; Homo sapiens, 48 h, read-out: Mean Growth, %): -31.9% | activity at 10 µM ([1]; Homo sapiens, 48 h, read-out: Range of Growth, %): -99 to 23% | IC (TGI) ([1]; Homo sapiens, 48 h, read-out: TGI MG_MID60, average over all cell lines): 3.31 µM | GI50 ([1]; Homo sapiens, read-out: GI50 MG_MID60): 1.65 µM | GI50 ([1]; Homo sapiens, read-out: GI50 against all human tumor cell lines): < 3 µM | GI50 ([1]; Homo sapiens, read-out: GI50 against the most sensitive cell lines): 0.2 to 0.94 µM | CC50 ([1]; Homo sapiens, read-out: LC50 MG_MID60, average over all cell lines): 7.64 µM | GI50 (SW-620 (Colon cancer); SW-620): 1.79 µM | IC (TGI) (SW-620 (Colon cancer); SW-620, 48 h, read-out: TGI): 3.54 µM | CC50 (SW-620 (Colon cancer); SW-620, read-out: LC50): 7.03 µM | IC (TGI) (CNS cancer subpanel; 48 h, read-out: TGI MG_MID): 3.2 µM | GI50 (CNS cancer subpanel; read-out: GI50 MG_MID): 1.69 µM | CC50 (CNS cancer subpanel; read-out: LC50 MG_MID): 6.06 µM | IC (TGI) (Renal Cancer subpanel; 48 h, read-out: TGI MG_MID): 3.2 µM | GI50 (Renal Cancer subpanel; read-out: GI50 MG_MID): 1.47 µM | CC50 (Renal Cancer subpanel; read-out: LC50 MG_MID): 6.11 µM | IC (TGI) (Colon Cancer subpanel; 48 h, read-out: TGI MG_MID): 3.07 µM | GI50 (Colon Cancer subpanel; read-out: GI50 MG_MID): 1.52 µM | CC50 (Colon Cancer subpanel; read-out: LC50 MG_MID): 6.16 µM | GI50 (SNB-75 (CNS cancer); SNB-75): 1.49 µM | IC (TGI) (SNB-75 (CNS cancer); SNB-75, 48 h, read-out: TGI): 2.9 µM | CC50 (SNB-75 (CNS cancer); SNB-75, read-out: LC50): 5.63 µM | GI50 (SK-MEL-28 (Melanoma); Homo sapiens, SK-MEL-28): 1.75 µM | IC (TGI) (SK-MEL-28 (Melanoma); Homo sapiens, SK-MEL-28, 48 h, read-out: TGI): 3.3 µM | CC50 (SK-MEL-28 (Melanoma); Homo sapiens, SK-MEL-28, read-out: LC50): 6.22 µM | Growth % of the Most Sensitive Cell Lines (SK-MEL-28 (Melanoma); SK-MEL-28, 1 dose 10 µM): −84.86% | GI50 (OVCAR-5 (Ovarian cancer); OVCAR-5): 1.69 µM | IC (TGI) (OVCAR-5 (Ovarian cancer); OVCAR-5, 48 h, read-out: TGI): 3.18 µM | CC50 (OVCAR-5 (Ovarian cancer); OVCAR-5, read-out: LC50): 5.99 µM | GI50 ([2]; Homo sapiens, NCI-H226): 2.07 µM | IC (TGI) ([2]; Homo sapiens, NCI-H226, 48 h, read-out: TGI): 4.25 µM | Growth % of the Most Sensitive Cell Lines ([2]; NCI-H226, 1 dose 10 µM): −99.04% | GI50 [3]: 1.73 µM | IC (TGI) ([3]; 48 h, read-out: TGI): 3.19 µM | CC50 ([3]; read-out: LC50): 5.89 µM | GI50 (DU-145 (Prostate cancer); DU-145): 1.72 µM | IC (TGI) (DU-145 (Prostate cancer); DU-145, 48 h, read-out: TGI): 3.14 µM | CC50 (DU-145 (Prostate cancer); DU-145, read-out: LC50): 5.75 µM | GI50 (MOLT-4 (Leukemia); MOLT-4): 1.37 µM | IC (TGI) (MOLT-4 (Leukemia); MOLT-4, 48 h, read-out: TGI): 3.15 µM | CC50 (MOLT-4 (Leukemia); MOLT-4, read-out: LC50): 7.25 µM | GI50 (M14 (Melanoma); M14): 1.61 µM | IC (TGI) (M14 (Melanoma); M14, 48 h, read-out: TGI): 3.12 µM | CC50 (M14 (Melanoma); M14, read-out: LC50): 6.04 µM | GI50 (EKVX (NSC lung cancer)): 1.66 µM | IC (TGI) (EKVX (NSC lung cancer); 48 h, read-out: TGI): 3.29 µM | CC50 (EKVX (NSC lung cancer); read-out: LC50): 6.53 µM
